Compound	melting point [°C]
CC(=O)CN1CCC(CCN2CCN(c3ccc(Cl)c(Cl)c3)CC2)CC1 [Example 495, 1-(4-{2-[4-(3,4-Dichlorophenyl)-piperazin-1-yl]ethyl}piperidin-1-yl)propan-2-one]	114
O=C(N[C@H]1CC[C@H](CCN2CCN(c3cccc(C(F)(F)F)c3F)CC2)CC1)C1=COCCC1 [Example 476]	207
Cc1cccc(N2CCN(CC[C@H]3CC[C@H](NC(=O)CCCC#N)CC3)CC2)c1 [Example 234, 4-Cyano-N-{4-[2-(4-m-tolylpiperazin-1-yl)ethyl]cyclohexyl}butanamide]	150
CCOCC(=O)N[C@H]1CC[C@H](CCN2CCN(c3cccc(C(F)(F)F)c3)CC2)CC1.Cl	184
O=C(C[C@H]1CC[C@H](CCN2CCN(c3cccc(C(F)(F)F)c3)CC2)CC1)N1CCCC1 [Example 294, 1-Pyrrolidin-1-yl-2-(4-{2-[4-(3-trifluoromethylphenyl)piperazin-10yl]ethyl}cyclohexyl)ethanone]	131
Cl.Cl.O=C(N[C@H]1CC[C@H](CCN2CCN(c3cc(C(F)(F)F)ccc3F)CC2)CC1)[C@@H]1CCCN1 (stereo in doubt)	274
Cl.N#CCCCC(=O)N1CCC(CCN2CCN(c3cccc(C(F)(F)F)c3)CC2)CC1	95
CCOc1cccc(N2CCN(CC[C@H]3CC[C@H](NC(=O)CCCC#N)CC3)CC2)c1 [Example 535, 4-Cyano-N-(4-{2-[4-(3-ethoxyphenyl)piperazin-1-yl]ethyl}cyclohexyl)butanamide]	121
N#CCC(=O)N[C@H]1CC[C@H](CCN2CC=C(c3cc(F)cc(C(F)(F)F)c3)CC2)CC1	163
CCc1ccccc1N1CCN(CC[C@H]2CC[C@H](NC(=O)CC(F)(F)F)CC2)CC1 [Example 422, N-(4-{2-[4-(2-Ethylphenyl)piperazin-1-yl]ethyl}cyclohexyl)-3,3,3-trifluoropropanamide]	135
CCOCC(=O)N[C@H]1CC[C@H](CCN2CCN(c3cc(C)cc(Cl)c3)CC2)CC1 [Example 577, N-(4-{2-[4-(3-Chloro-5-methylphenyl)piperazin-1-yl]ethyl}cyclohexyl)-2-ethoxyacetamide]	100
O=C(CC1C=CCC1)N[C@H]1CC[C@H](CCN2CCN(c3cccc(F)c3)CC2)CC1 (some centres unmarked) [Example 420, 2-Cyclopent-2-enyl-N-(4-{2-[4-(3-fluorophenyl)piperazin-1-yl]ethyl}cyclohexyl)acetamide]	188
N#CCC(=O)N[C@H]1CC[C@H](CCN2CCN(c3ccc(Cl)c(Cl)c3)CC2)CC1 [Example 272, 2-Cyano-N-(4-{2-[4-(3,4-dichlorophenyl)piperazin-1-yl]ethyl}cyclohexyl)acetamide]	216
CC(=O)c1cccc(N2CCN(CC[C@H]3CC[C@H](NC(=O)CC#N)CC3)CC2)c1 [Example 7, N-(4-{2-[4-(3-acetylphenyl)piperazin-1-yl]ethyl}cyclohexyl)-2-cyanoacetamide trans/cis 80/20]	160
N#CCCCC(=O)N[C@H]1CC[C@H](CCN2CCN(c3cccc4c3CCC4)CC2)CC1 [Example 457, 4-Cyano-N-{4-[2-(4-indan-4-ylpiperazin-1-yl)ethyl]cyclohexyl}butanamide]	157
CCc1cccc(N2CCN(CC[C@H]3CC[C@H](NC(=O)CCC#N)CC3)CC2)c1 [Example 251, 3-Cyano-N-(4-{2-[4-(3-ethylphenyl)piperazin-1-yl]ethyl}cyclohexyl)propanamide]	143
Cc1ccc(Cl)c(N2CCN(CC[C@H]3CC[C@H](NC(=O)CC#N)CC3)CC2)c1 [Example 227, N-(4-{2-[4-(2-Chloro-5-methylphenyl)piperazin-1-yl]ethyl}cyclohexyl)-2-cyanoacetamide]	174
N#CCCCC(=O)N[C@H]1CC[C@H](CCN2CCN(c3cccc(F)c3)CC2)CC1 [Example 395, 4-Cyano-N-(4-{2-[4-(3-fluorophenyl)piperazin-1-yl]ethyl}cyclohexyl)butanamide]	170
CCC(=O)C(=O)N1CCC(CCN2CCN(c3cccc4c3CCC4)CC2)CC1.Cl	202
N#CCC(=O)N[C@H]1CC[C@H](CCN2CCN(c3cccc(F)c3)CC2)CC1 [Example 133]	202
N#CCCCC(=O)N[C@H]1CC[C@H](CCN2CC=C(c3cccc(C(F)(F)F)c3F)CC2)CC1	130
CCOCC(=O)N[C@H]1CC[C@H](CCN2CCN(c3cc(Cl)ccc3Cl)CC2)CC1 [Example 521, N-(4-{2-[4-(2,5-Dichlorophenyl)-piperazin-1-yl]ethyl}cyclohexyl)-2-ethoxyacetamide]	128
Cl.N#CCC(=O)N1CCC(CCN2CCN(c3cccc(Cl)c3Cl)CC2)CC1	228
CC(C)(C)OCC(=O)N[C@H]1CC[C@H](CCN2CCN(c3cccc(C(F)(F)F)c3)CC2)CC1 [Example 135, 2-tert-Butoxy-N-(4-{2-[4-(3-trifluoromethylphenyl)piperazin-1-yl]ethyl}cyclohexyl)acetamide trans/cis 95/5]	81
COc1c(Cl)cccc1N1CCN(CCC2CCN(CC(C)=O)CC2)CC1.Cl.Cl	270
N#CCC(=O)N[C@H]1CC[C@H](CCN2CCN(c3ccc(Cl)c(Cl)c3Cl)CC2)CC1 [Example 729, 2-Cyano-N-(4-{2-[4-(2,3,4-trichlorophenyl)piperazin-1-yl]ethyl}cyclohexyl)acetamide]	217
COCC(=O)N[C@H]1CC[C@H](CCN2CCN(c3ccccc3F)CC2)CC1 [Example 50, N-(4-{2-[4-(2-Fluorophenyl)-piperazin-1-yl]ethyl}cyclohexyl)-2-methoxyacetamide]	143 to 144
CCc1cccc(C2=CCN(CC[C@H]3CC[C@H](NC(=O)CC#N)CC3)CC2)c1	158

Now from value to molecule:

melting point [°C]	Compound
205	O=C(N[C@H]1CC[C@H](CCN2CCN(c3ccc(F)cc3F)CC2)CC1)C1=CCCC1 [Example 384, Cyclopent-1-enecarboxylic acid (4-{2-[4-(2,4-difluorphenyl)-piperazin-1-yl]ethyl}cyclohexyl) amide]
209	N#CCC(=O)N[C@H]1CC[C@H](CCN2CCN(c3cc(F)c(F)c(F)c3)CC2)CC1 [Example 341, 2-Cyano-N-(4-{2-[4-(3,4,5-trifluorophenyl)piperazin-1-yl]ethyl}cyclohexyl)acetamide]
177	O=C(CC(F)(F)F)N[C@H]1CC[C@H](CCN2CCN(c3cc(C(F)(F)F)ccc3F)CC2)CC1 [Example 670, 3,3,3-Trifluoro-N-(4-{2-[4-(2-fluoro-5-trifluoromethylphenyl)piperazin-1-yl]ethyl}cyclohexyl) propanamide]
87	CC(=O)CN1CCC(CCN2CCN(c3cccc(Cl)c3Cl)CC2)CC1 [Example 21, 1-(4-{2-[4-(2,3-Dichlorophenyl)piperazin-1-yl]ethyl}piperidin-1-yl)propan-2-one]
204	COCCCC(=O)N[C@H]1CC[C@H](CCN2CCN(c3ccc(Cl)cc3)CC2)CC1 [Example 698, N-(4-{2-[4-(4-Chlorophenyl)-piperazin-1-yl]ethyl}cyclohexyl)-4-methoxybutanamide]
164	COCCCC(=O)N[C@H]1CC[C@H](CCN2CC=C(c3cc(C(F)(F)F)ccc3F)CC2)CC1
283	CC(=O)CN1CCC(CCN2CCN(c3cc(C)ccc3Cl)CC2)CC1.Cl.Cl
65	CC(=O)CN1CCC(CCN2CCN(c3ccc(C)cc3F)CC2)CC1 [Example 482, 1-(4-{2-[4-(2-Fluoro-4-methylphenyl)piperazin-1-yl]ethyl}piperidin-1-yl)propan-2-one]
260	COc1ccc(C)cc1N1CCN(CCC2CCN(CC(C)=O)CC2)CC1.Cl.Cl
120	Cl.Cl.NC(=O)CN1CCC(CCN2CCN(c3cccc(C(F)(F)F)c3)CC2)CC1
192	CS(=O)(=O)CC(=O)N[C@H]1CC[C@H](CCN2CCN(c3cc(C(F)(F)F)ccc3F)CC2)CC1 [Example 706, N-(4-{2-[4-(2-Fluoro-5-trifluoromethylphenyl)piperazin-1-yl]ethyl}cyclohexyl)-2-methanesulfonylacetamide]
165	COCCCC(=O)N[C@H]1CC[C@H](CCN2CCN(c3cccc(F)c3)CC2)CC1 [Example 419, N-(4-{2-[4-(3-Fluorophenyl)piperazin-1-yl]ethyl}cyclohexyl)-4-methoxybutanamide]
169	N#CCC(=O)N[C@H]1CC[C@H](CCN2CCN(c3ccccc3Oc3ccccc3)CC2)CC1 [Example 245, 2-Cyano-N-(4-{2-[4-(2-phenoxyphenyl)piperazin-1-yl]ethyl}cyclohexyl)acetamide]
125	CCOCC(=O)N[C@H]1CC[C@H](CCN2CCN(c3cccc(C(F)(F)F)c3F)CC2)CC1 [Example 478, 2-Ethoxy-N-(4-{2-[4-(2-fluoro-3-trifluoromethylphenyl)piperazin-1-yl]ethyl}cyclohexyl)acetamide]
192	O=C(N[C@H]1CC[C@H](CCN2CC=C(c3ccccc3F)CC2)CC1)C1=CCCC1
141	N#CCCCC(=O)N[C@H]1CC[C@H](CCN2CCN(c3ccc(F)c(F)c3)CC2)CC1 [Example 357, 4-Cyano-N-(4-{2-[4-(3,4-difluorophenyl)piperazin-1-yl]ethyl}cyclohexyl)butanamide]
122	COc1c(Cl)cccc1N1CCN(CC[C@H]2CC[C@H](NC(=O)CC#N)CC2)CC1 [Example 215, N-(4-{2-[4-(3-Chloro-2-methoxyphenyl)piperazin-1-yl]ethyl}cyclohexyl)-2-cyanoacetamide]
178	N#CCC(=O)N[C@H]1CC[C@H](CCN2CCN(c3cc(F)cc(C(F)(F)F)c3)CC2)CC1 [Example 664, 2-Cyano-N-(4-{2-[4-(3-fluoro-5-trifluoromethylphenyl)piperazin-1-yl]ethyl}cyclohexyl)acetamide]
227	O=C(N[C@H]1CC[C@H](CCN2CCN(c3ccc(F)cc3)CC2)CC1)C1=CCCC1 [Example 431, Cyclopent-1-enecarboxylic acid (4-{2-[4-(4-fluorophenyl)-piperazin-1-yl]ethyl}cyclohexyl) amide]

Source: patent publication US8802678B2, “Carbonylated (aza) cyclohexanes as dopamine D3 receptor ligands” (Bioprojet, priority 2006, dated 2014)
